From patent US20100144773A1 (priority 2007, published 2010)
Read-outs that look alike come from different tables or passages of the source.

System: male Wistar rats injected with beta-amyloid peptide 25-35 into NBM
Details: 1 mg/kg once a day for 7 days from day 16 after amyloid injection, retention trial 24 h after acquisition, cut-off 180 s, n=8, control 48 ± 11
Procedure: Beta-amyloid was administered bilaterally into NBM of male Wistar rats in dose of 2 μg per each side. […] Control rats received saline intranasally. On day next to the last day of the treatment, passive avoidance performance in rats was tested for two consecutive days. A two-compartment, step-through, passive avoidance apparatus consisting of illuminated (25×40×25 cm) and dark (25×40×25 cm) compartments attached to an electrified grid floor and separated by a guillotine door (8×8 cm) was used. In the acquisition trial, the rat was placed in the illuminated compartment in a position its tail directed to the closed door for 2 min to habituate to the apparatus. The guillotine door was opened and time to enter to dark compartment was recorded. When the rat entered to dark compartment completely (four foots in dark compartment), the guillotine door was closed and the rat was delivered an electrical shock of 0.8 mA for 3 sec through the grid floor. After the shock, the rat was immediately placed in home cage. In the retention trial, conducted 24 h after the acquisition trial, the rat was placed in the illuminated compartment and the retention latency to enter into the dark compartment was recorded until 180 s had elapsed. […] Data are presented as retention latency mean±SD (n=8).

Structure (SMILES) | Latency (retention latency to enter the dark compartment, mean±SD) (intranasally) [s] | Latency (retention latency to enter the dark compartment, mean±SD) (intraperitoneally) [s]
C[N+](C)(C)CCO.O=C([O-])CCC(=O)O [Compound of formula (I)] | 103 ± 18 | 55 ± 18
C[N+](C)(C)CCO.O=C([O-])CCC(=O)[O-].[Na+] [Compound of formula (III)] | 87 ± 19 | 53 ± 28
C[N+](C)(C)CCO.O=C([O-])CCC(=O)[O-].[K+] [Compound of formula (IV)] | 65 ± 16 | 49 ± 17
